# Measured values reported in patent publication US20210177892A1, “PREVENTION AND TREATMENT OF INFECTIOUS DISEASE USING LOW CONCENTRATION HYPOCHLOROUS ACID SOLUTIONS” (Wonder Spray, LLC, priority 2019, published 2021).
# Columns and labels:
# [1] = system: Streptococcus pneumoniae ATCC 49619; experiment: Kill Time Study, Streptococcus pneumoniae; format: cell-based; settings: FIG. 3
# Description: (§1) For example, FIG. 3 and FIG. 4 illustrate tables of the effect of a solution of HOCl on Streptococcus pneumoniae and Streptococcus pyogenes, respectively. The organisms in this test were prepared by inoculating the surface of about 5% Sheep blood agar plates, incubated at about 30 to 35° C. for 18 to 24 hours. Following the incubation period, the plates were washed with sterile Serological Saline Solution to harvest the microorganisms used and dilutions with Saline were made, plated on blood agar and incubated at 30 to 35° C. for 24-48 hours to determine the concentration. The inoculum level was then adjusted to […] for use as a stock suspension. Stock suspensions were well mixed and homogenized at each inoculation interval.
# (§2) Positive controls were performed at initiation and completion by spread plating to enumerate inoculum levels and verify culture purity during testing and Negative controls were performed to establish sterility of media, reagents, and materials used at initiation. Neutralizer Suitability using Modified Letheen Broth (MLB) was performed concurrently with Kill Time testing to confirm the recovery of <100 CFU of the test organism in the subculture media in the presence of product. Duplicate 10 ml containers for each treated specimen or material concentration was prepared, equilibrated to 25±2° C., and 0.1 ml of inoculum is added to each container to achieve a final concentration of 10^6 cfu/ml.
# (§3) Serial dilutions from each replicate were made at intervals of 15 second, 30 second, 1 minute and 5 minutes using 1 ml of the inoculated test product into 9 ml MLB from 1:10 to 1:1000000. Subsequently, 1 ml from each dilution was spread plated on 5% Sheep Blood agar plate in duplicate, incubated at 30 to 35° C. for 48 hours. After the incubation period, all plates were counted to determine the number of microorganisms, results are averaged and reported as log 10 reductions.
# f2 RNA = settings: cited from earlier work
# E. coli = settings: 50 mM (2.6 ppm), within 5 minutes; cited from earlier work
# [2] = system: Streptococcus pyogenes ATCC 49399; experiment: Kill Time Study, Streptococcus pyogenes; format: cell-based; settings: FIG. 4
# Description: as §1, §2, §3
# [3] = inhalation; cited from earlier work
structure (smiles),measurement,setting,value
"OCl [HOCl, Hypochlorous acid]",time in which bacteria that cause pneumonia are effectively killed,[1],less than 15 seconds
same,cfu/ml of Streptococcus pneumoniae after the HOCl solution was applied,[1]; after fifteen seconds,less than 10 cfu/ml
same,log 10 reduction for Streptococcus pneumoniae,[1]; after fifteen seconds,6.057 log 10
same,percent reduction for Streptococcus pneumoniae,[1]; after fifteen seconds,99.99%
same,inactivation of naked f2 RNA compared with RNA in intact phage,f2 RNA,inactivated naked f2 RNA at the same rate as RNA in intact phage
same,inhibition of DNA synthesis in E. coli,E. coli,ninety-six
same,inhibition of the growth of E. coli,E. coli,completely inhibited the growth
same,time in which bacteria that cause strep throat are effectively killed,[2],less than 15 seconds
same,cfu/ml of Streptococcus pyogenes after the HOCl solution was applied,[2]; after fifteen seconds,less than 10 cfu/ml
same,log 10 reduction for Streptococcus pyogenes,[2]; after fifteen seconds,6.086 log 10
same,percent reduction for Streptococcus pyogenes,[2]; after fifteen seconds,99.99%
same,adverse effects of inhaling the aerosolized form,[3],no adverse effects
